From the METLIN SMRT retention time set (Domingo-Almenara et al. 2019) come the findings set out here.

The data set is described as follows: gradient 5% acetonitrile 3 min, to 50% in 2 min, to 85% in 15 min, held 3 min, 100 µL/min. The settings on record: column: Zorbax Extend-C18 2.1 x 50 mm; eluents: water / acetonitrile, 0.1% formic acid. The gist of the method: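 Retention times of pure standards were taken from adduct peaks that were selected by computer and manually inspected. Over 3 months, mixtures of ~100 molecules were run by HPLC–quadrupole time-of-flight mass spectrometry in positive and negative ionization mode. The Zorbax Extend-C18 column (2.1 × 50 mm, 1.8 μm) ran at 100 μL/min in water and acetonitrile, each containing 0.1% formic acid, with 40 μL dead volume and 900 μL dwell volume.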
`O=C(c1n[nH]c(=O)c2ccccc12)N1C[C@H]2C[C@H](C1)[C@H]1CCCC(=O)N1C2` had an RP-LC retention time of 598 s.

In turn, `Cc1ccc(C(CC(=O)NCCCN2CCCC2)N2Cc3ccccc3C2=O)cc1` (centres undefined) returned an RP-LC retention time of 639 s.

Compound `COc1ccc(NC(=O)N(Cc2nnc3n2CCCCC3)c2ccc(OC)cc2)cc1` returned an RP-LC retention time of 631 s.

As for `Nc1c(C(=O)NCc2ccccc2Cl)nsc1C(=O)N1CCN(c2ccccn2)CC1`, the RP-LC retention time worked out at 715 s.

`O=C(NC1CCCCCC1)C1CCN(Cc2cc3ccccc3n2Cc2ccccc2)CC1` came in with an RP-LC retention time of 845 s.

Compound `CCn1cc(C2=CCN(C(=O)Nc3ccc(OC)c(F)c3)CC2)c2cccnc21` showed an RP-LC retention time of 885 s.

`O=c1ccc(-c2ccccc2)nn1CCc1nc(-c2ccc(Br)cc2)no1` yielded an RP-LC retention time of 1060 s.

On to `CCC(=O)N(C1CCOCC1)C1CCN(S(=O)(=O)c2ccc(F)c(C)c2)CC1`, for which the RP-LC retention time turned out to be 836 s.

In turn, `COc1cccc(-c2nc(C3CCN(S(=O)(=O)c4ccccc4F)CC3)no2)c1` displayed an RP-LC retention time of 1110 s.

`CCC(=O)N1c2ccccc2NC2=C(C(=O)CC(C)(C)C2)C1c1ccc(O)c(OC)c1` (centres undefined) showed an RP-LC retention time of 703 s.

As to `O=C(NCc1ccc(-c2nc(-c3ccc(F)cc3)no2)s1)C1CCC1`, the RP-LC retention time came out at 975 s.

`Cc1ccc(-c2csc(NC(=O)CSc3nc4c(cc3C#N)CCCC4)n2)cc1`: the RP-LC retention time came out at 1290 s.

`CCOc1ccccc1C(=O)NC1CCN(C(=O)c2cn[nH]c2-c2ccc(F)cc2)CC1` displayed an RP-LC retention time of 683 s.

In turn, `Cc1nn(CC(=O)NCCCN2CCCC2)c(=O)c2nc(-c3ccccc3)sc12` had an RP-LC retention time of 620 s.

As for `CC(C)c1noc(C2(NC(=O)c3ccc(F)cc3)CCCCC2)n1`, the RP-LC retention time stood at 1010 s.

Consider `COC(=O)c1ccc2c(=O)n(-c3ccccc3)c(N3CCC(C)CC3)nc2c1`, for which the RP-LC retention time is 1210 s.

The compound `Cc1ccc(C)c(NC(=O)CSc2nc(N3CCCCC3)nc3ccccc23)c1` had an RP-LC retention time of 804 s.

In the case of `COc1ccc(Cc2nc3ccc(C(=O)NCc4ccc(C)o4)cc3o2)cc1`, the RP-LC retention time was 918 s.

As for `O=C(NCc1ccc(Cl)cc1)c1c(O)c2cccnc2n(-c2ccccc2)c1=O`, the RP-LC retention time stood at 1260 s.

With `Cc1noc(C2(NC(=O)C3COc4ccccc4O3)CCCCC2)n1` (centres undefined), the RP-LC retention time was 920 s.

Take `NC(=O)[C@@H]1C[C@H](Oc2ccccc2)CN1C1CCC1`: the RP-LC retention time turned out to be 571 s.

Consider `CC1CC(=O)Nc2cc(S(=O)(=O)N3CCN(c4ccccn4)CC3)ccc2S1` (centres undefined), for which the RP-LC retention time is 646 s.

In turn, `COc1ccc2nc(NC(=O)C3CCN(c4nc(-c5ccc(OC)c(OC)c5)no4)CC3)sc2c1` registered an RP-LC retention time of 933 s.

Turning to `O=C(NCc1cccs1)c1ccc2ncnc(N3CCCCC3)c2c1`, the RP-LC retention time is 644 s.

For `O=C(c1ccc(CS(=O)c2ccccc2Cl)o1)N1CCN(c2ccccn2)CC1` (centres undefined), the RP-LC retention time turned out to be 604 s.

For the compound `CCOC(=O)c1ccccc1NC(=O)Cn1c(=O)n(-c2ccc(C)cc2)c(=O)c2c1cc(C)n2C`, the RP-LC retention time came to 1060 s.

With `Cc1ccc(NC(=O)C2CCN(S(=O)(=O)c3c(C)[nH]c(C)c3C(=O)N3CCCC3)CC2)cc1`, the RP-LC retention time came to 723 s.

As to `Cc1noc2ncnc(N3CCC(C(=O)N4CCCc5ccccc54)CC3)c12`, the RP-LC retention time is 865 s.

For `COc1ccc2c(c1)c(CN1CCCCCCN(C)C(=O)[C@@H]3CCC[C@@H]31)cn2C`, the RP-LC retention time was 721 s.

In turn, `CCOCCCNC(=O)C1CCCN(c2cc(=O)n(C)c(=O)n2C)C1` (centres undefined) gave an RP-LC retention time of 665 s.

Consider `O=C(CC(c1ccc(F)cc1)N1Cc2ccccc2C1=O)NCCCN1CCCC1` (centres undefined), for which the RP-LC retention time was 619 s.

`CC1=C(c2cccc(Cl)c2)S(=O)(=O)N=C1N1CCCN(C(=O)CC(C)C)CC1` showed an RP-LC retention time of 868 s.

The compound `NC(=O)C1CCC(=O)N1C1CCN(C(=O)CCC2CCCC2)CC1` (centres undefined) came in with an RP-LC retention time of 566 s.

Consider `O=C(NC1CCN(c2cc(-c3ccc(F)cc3)[nH]n2)C1)c1ccccc1Cl` (centres undefined), for which the RP-LC retention time is 721 s.

Turning to `COc1ccc(CCC(=O)NCCCN2CCOC(c3ccccc3)C2)cc1` (centres undefined), the RP-LC retention time is 570 s.

Compound `O=C(NCc1ccco1)Nc1cccc([N+](=O)[O-])c1` yielded an RP-LC retention time of 846 s.

On to `O=C(NCc1ccc2c(c1)OCO2)c1c(O)c2cccnc2n(-c2ccccc2)c1=O`, for which the RP-LC retention time turned out to be 1120 s.

`O=C(Cc1nnc(-c2ccncc2)o1)NCc1ccc(C(F)(F)F)cc1`: the RP-LC retention time was determined as 718 s.

`COc1ccc(Cl)cc1S(=O)(=O)N1CCC(C(=O)NCCCOC(C)C)CC1` displayed an RP-LC retention time of 804 s.

Take `Cc1noc2nc(C)n(CC(=O)Nc3ccccc3Br)c(=O)c12`: the RP-LC retention time was determined as 766 s.

As for `Cc1nc(C)c(-c2cc(C(=O)N3CCN(c4ccc(F)cc4)CC3)n[nH]2)s1`, the RP-LC retention time was determined as 690 s.

In turn, `CCn1ncn2cc(S(=O)(=O)Nc3ccc(Cl)cc3)cc2c1=O` had an RP-LC retention time of 792 s.

With `O=C(Cc1cccs1)N1CCN(c2cnn3cnnc3c2)CC1`, the RP-LC retention time came to 585 s.

`[O-][n+]1ccc(CC(O)(C(F)(F)F)C(F)(F)F)cc1` came in with an RP-LC retention time of 674 s.

`CCCn1c(=O)c(C)nc2cc(-c3noc(Cc4cccc(F)c4)n3)ccc21` showed an RP-LC retention time of 1090 s.

Regarding `CCN(CC)c1ncc2c(n1)CCC(C(=O)Nc1ccc(N3CCOCC3)cc1)C2` (centres undefined), the RP-LC retention time was found to be 641 s.

Compound `C=CCNC(=O)C(=O)Nc1ccc2c(c1)N(C(=O)C(C)C)CCC2` displayed an RP-LC retention time of 746 s.

In turn, `Cc1nnc(N2CCCC(C(=O)NCc3cccc(F)c3)C2)c2nn(-c3ccccc3)c(C)c12` (centres undefined) showed an RP-LC retention time of 716 s.

Take `Cc1cc(N2CCN(S(=O)(=O)c3cc(F)ccc3F)CC2)nc(N2CCOCC2)n1`: the RP-LC retention time turned out to be 660 s.

The compound `Cn1cnnc1SCCNC(=O)CCc1cccc(Oc2ccc(F)cc2)c1` showed an RP-LC retention time of 697 s.

With `CNC(=O)[C@H]1O[C@@H](n2cnc3c(N)ncnc32)C(O)[C@H]1O` (some centres undefined), the RP-LC retention time was 621 s.

With `Clc1cccc(-c2nc(-c3cccc(-c4ccn[nH]4)c3)no2)c1`, the RP-LC retention time was determined as 1120 s.

With `O=C(Cn1c(=O)c(CCC(=O)NC2CC2)nc2ccccc21)Nc1ccccc1Br`, the RP-LC retention time turned out to be 712 s.

On to `CCc1ccc(CNC(=O)c2cc(-c3ccncc3)cn2C)cc1`, for which the RP-LC retention time came to 669 s.

`CN(C)C(=O)c1n[nH]c2c1CN(C(=O)c1ccccc1Br)CC2` had an RP-LC retention time of 623 s.

Turning to `O=c1n(Cc2ccc(F)cc2)nc2ccc(S(=O)(=O)N3CCCC3)cn12`, the RP-LC retention time was found to be 855 s.

As to `CCn1cc(S(=O)(=O)Nc2ccc(OC)c(Cl)c2)c2cccnc21`, the RP-LC retention time was 832 s.

With `CCC(C(=O)N1CCN(c2ccccn2)CC1)n1c(C)c2cnn(-c3ccccc3)c(=O)c2c1C` (centres undefined), the RP-LC retention time was 632 s.

The compound `CCOc1ccc(-c2noc(CN3C(=O)COc4ccccc43)n2)cc1` registered an RP-LC retention time of 1030 s.

`O=C(C1CCN(S(=O)(=O)N2CCOCC2)CC1)N1CCC(c2nc(C3CCOCC3)no2)C1` (centres undefined) gave an RP-LC retention time of 656 s.

`O=C(Nc1ccc(Cl)cc1F)C1CCN(c2nccnc2Sc2ccccc2)CC1` displayed an RP-LC retention time of 1190 s.

The compound `CN1C(=O)COc2ccc(-c3csc(NC(=O)CCC4CCCCC4)n3)cc21` returned an RP-LC retention time of 1140 s.

`CCCNC(=O)C1CCN(c2ccc(SCC(=O)Nc3ccc(C)c(C)c3)nn2)CC1` yielded an RP-LC retention time of 685 s.

`Cc1ccc(F)c(-n2cc(C(=O)O)nn2)c1` came in with an RP-LC retention time of 684 s.

Consider `COCCN1C(=O)c2ccccc2C(C(=O)NCc2ccc(OC)cc2)C12CCCC2` (centres undefined), for which the RP-LC retention time was found to be 785 s.

`CC(C)NC(=O)C1CCC(=O)N1C1CCN(C(=O)C2CCCCC2)CC1` (centres undefined): the RP-LC retention time was 591 s.

Compound `Cc1oc(-c2ccc(NC(=O)c3ccc4c(c3)OCO4)cc2)nc1Cn1cccn1` came in with an RP-LC retention time of 822 s.

Compound `CC(C)n1nnc2cc(C(=O)N(C)CC(=O)Nc3cccc(Br)c3)ccc21` came in with an RP-LC retention time of 805 s.

Take `CCCC(NC(=O)c1cccc(C)c1)C(=O)Nc1nc2ccccc2[nH]1` (centres undefined): the RP-LC retention time came out at 715 s.

Regarding `Cc1ccc(NC(=O)C2(C)Oc3cccnc3NC2=O)cc1` (centres undefined), the RP-LC retention time is 727 s.

The compound `CN(C)c1ccc(N2C=C(C(=O)N3CCCCC3)S(=O)(=O)c3ccccc32)cc1` showed an RP-LC retention time of 898 s.

As for `COc1ccc(NC(=O)N(C)CC2CCOCC2)c(C)c1`, the RP-LC retention time is 670 s.

Compound `CCCc1nc2cccnc2n1C1CCN(C(=O)Nc2ccc3c(c2)OCCO3)C1` (centres undefined) displayed an RP-LC retention time of 600 s.

In turn, `Cc1cc(SCC(=O)c2ccc3c(c2)OCO3)nc(C(C)C)n1` showed an RP-LC retention time of 764 s.

`Cc1cccc(Cn2nc3n(CCC(=O)NC(C)C)c(=O)c4ccccc4n3c2=O)c1` returned an RP-LC retention time of 851 s.

In turn, `Cc1noc(-c2cccnc2SCC(=O)Nc2cccc(Br)c2)n1` gave an RP-LC retention time of 895 s.

`CN(C)c1ccc(C(=O)N2CCCC2c2nc(-c3ccc(F)cc3F)no2)cc1` (centres undefined) gave an RP-LC retention time of 984 s.

`O=C(N[C@H]1C[C@@H]2C[C@H]1CN2C(=O)NCCc1ccccc1)c1ccccc1` returned an RP-LC retention time of 734 s.

Regarding `CCC(C)(C)NS(=O)(=O)c1cc(-c2nc(C)c(C(=O)N3CCCC3)s2)n(C)c1`, the RP-LC retention time came out at 838 s.
